Here are results for five molecules from patent US8507540B2, “Oxazolidinone derivatives containing new bicyclic group, having antibacterial activity, and method for treating pathogenic bacterial infections using the same” (Korean Institute of Science and Technology, priority 2011, dated 2013).

Converted amounts (≈) assume the structure as drawn.

What is called IC50 is the midpoint of a concentration-inhibition curve. High values mean lower potency, low ones higher potency.

One series has as its target CYP3A4 (Homo sapiens, UniProt P08684). Description: CYP450 remaining test (Vivid CYP450 Screening Kits). Here is the method: (§1) CYP450 remaining test was conducted using Vivid® CYP450 Screening Kits Protocol (Invitrogen), and hERG assay for cardiac toxicity test was conducted using an automated patch-clamp device, NPC-16 Patchliner (Nanion Technologies, Munchen, Germany) according to the method of C. Farre, et al. (Combinatorial Chemistry & High Throughput Screening, 2009, 12, 24-37). And, human hepatic microsomal stability test was conducted according to the method of W. A. Korfmacher, et al. (Rapid Commun. Mass Spectrom. 13, 901-907 (1999)).

The subject of series [1] is Staphylococcus pneumoniae, penicillin non-susceptible. The series can be described thus: In vitro antibacterial activity test, Agar Dilution MIC. As to conditions: 18 h. (Agar dilution tests growth on a series of plates holding different concentrations.)
A further series deals with T1, CYP1A2 (Homo sapiens, UniProt P05177).
T1 construct: purchased Invitrogen
T1 sequence (P05177 whole entry): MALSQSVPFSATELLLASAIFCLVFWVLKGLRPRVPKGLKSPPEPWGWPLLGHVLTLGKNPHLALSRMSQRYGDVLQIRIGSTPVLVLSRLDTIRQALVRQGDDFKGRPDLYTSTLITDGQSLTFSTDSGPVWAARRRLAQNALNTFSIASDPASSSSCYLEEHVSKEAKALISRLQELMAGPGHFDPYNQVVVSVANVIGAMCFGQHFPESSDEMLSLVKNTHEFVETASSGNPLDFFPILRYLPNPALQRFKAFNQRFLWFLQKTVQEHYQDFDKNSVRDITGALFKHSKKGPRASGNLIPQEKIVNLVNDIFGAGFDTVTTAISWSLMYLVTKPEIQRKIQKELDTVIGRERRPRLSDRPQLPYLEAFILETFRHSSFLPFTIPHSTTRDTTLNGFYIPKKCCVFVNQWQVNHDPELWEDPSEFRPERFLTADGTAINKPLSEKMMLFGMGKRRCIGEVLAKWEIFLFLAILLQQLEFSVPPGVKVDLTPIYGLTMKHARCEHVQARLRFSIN
Description: CYP450 remaining test (Vivid CYP450 Screening Kits). As to conditions: isozyme 1A2. The series is classed as in vitro ADME.

For series [2], the system named is Staphylococcus aureus, methicillin susceptible. Description: In vitro antibacterial activity test, Agar Dilution MIC. As to conditions: 18 h.
The subject of series [3] is Enterococcus faecium, vancomycin resistant. The series is described as above. As to conditions: 18 h.
In series [4] the test system is Coagulase negative staphylococci, methicillin resistant. The description is as above. As to conditions: 18 h.
The target in the next series is CYP2D6 (Homo sapiens, UniProt P10635). The series can be described thus: CYP450 remaining test (Vivid CYP450 Screening Kits). Here is the method: as §1
Sequence of CYP2D6 (P10635 whole entry): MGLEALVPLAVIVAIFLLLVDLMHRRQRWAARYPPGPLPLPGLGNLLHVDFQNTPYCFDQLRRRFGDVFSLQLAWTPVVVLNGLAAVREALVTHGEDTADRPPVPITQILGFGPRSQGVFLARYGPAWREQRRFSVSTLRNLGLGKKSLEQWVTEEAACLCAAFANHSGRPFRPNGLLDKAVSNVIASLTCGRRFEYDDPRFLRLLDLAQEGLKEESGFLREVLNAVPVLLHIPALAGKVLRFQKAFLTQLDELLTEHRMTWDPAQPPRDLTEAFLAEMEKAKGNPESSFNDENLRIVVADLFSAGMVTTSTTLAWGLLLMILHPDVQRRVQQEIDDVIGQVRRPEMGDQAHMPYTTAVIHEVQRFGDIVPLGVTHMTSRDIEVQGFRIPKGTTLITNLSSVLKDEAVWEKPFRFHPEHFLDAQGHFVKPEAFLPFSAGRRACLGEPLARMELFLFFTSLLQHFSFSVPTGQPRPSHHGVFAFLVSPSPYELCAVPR
The subject of series [5] is MRSA and other gram positive bacteria; Staphylococcus sp., Enterococcus sp. and Haemophilus influenza. Description: In vitro antibacterial activity test, overall statements on the strain panel. As to conditions: various strains of Table 1.
Series [6] deals with Enterococcus faecium, vancomycin susceptible. The series can be described thus: In vitro antibacterial activity test, Agar Dilution MIC. As to conditions: 18 h.
The target of another series is CYP2C9 (Homo sapiens, UniProt P11712). Description: CYP450 remaining test (Vivid CYP450 Screening Kits).
Sequence of CYP2C9 (P11712 whole entry): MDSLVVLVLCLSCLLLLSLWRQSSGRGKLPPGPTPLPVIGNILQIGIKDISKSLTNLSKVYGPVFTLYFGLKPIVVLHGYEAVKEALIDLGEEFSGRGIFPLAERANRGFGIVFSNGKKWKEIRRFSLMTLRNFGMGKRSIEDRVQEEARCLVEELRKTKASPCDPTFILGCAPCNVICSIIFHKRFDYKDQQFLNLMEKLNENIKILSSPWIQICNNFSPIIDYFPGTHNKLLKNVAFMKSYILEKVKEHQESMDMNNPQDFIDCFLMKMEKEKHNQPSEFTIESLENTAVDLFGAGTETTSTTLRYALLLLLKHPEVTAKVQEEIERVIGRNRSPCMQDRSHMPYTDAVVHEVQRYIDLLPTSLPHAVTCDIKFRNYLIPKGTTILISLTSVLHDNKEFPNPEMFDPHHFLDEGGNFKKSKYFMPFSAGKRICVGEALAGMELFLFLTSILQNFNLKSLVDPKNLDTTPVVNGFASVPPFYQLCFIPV
Series [7] relates to Haemophilus influenzae, beta-lactamase-positive. The series can be described thus: In vitro antibacterial activity test, Agar Dilution MIC. As to conditions: 18 h.
A further series has as its target hERG (Homo sapiens, UniProt Q12809). The series can be described thus: hERG assay for cardiac toxicity, automated patch-clamp. Format: cell-based. For orientation: Block of hERG is tested as a sign of cardiac risk.
Another series relates to Staphylococcus pyogenes. Description: In vitro antibacterial activity test, Agar Dilution MIC. Particulars: Staphylococcus aureus, 18 h.
Series [8] has as its system Coagulase negative staphylococci, methicillin susceptible. The description is as above. As to conditions: 18 h.
Series [9] relates to Mycobacterium tuberculosis (Mtb) H37Rv. Description: In vitro antituberculous activity test, Microplate Alamar Blue Assay. Format: cell-based. Particulars: versus linezolid. (The colour change of resazurin is a common sign of viable cells or microbes.)
For series [10], the system named is Staphylococcus pneumoniae, penicillin susceptible. Description: In vitro antibacterial activity test, Agar Dilution MIC. As to conditions: 18 h.
Series [11] relates to Enterococcus faecalis, vancomycin resistant. The description is as above. As to conditions: 18 h.
In series [12] the test system is Enterococcus faecalis, vancomycin susceptible. Described as above. As to conditions: 18 h.
In series [13] the test system is Staphylococcus agalactiae. The description is as above. As to conditions: 18 h.
In series [14] the test system is CYP1A2, CYP2D6, CYP2C9, CYP3A4. The series can be described thus: in vitro. Format: in vitro ADME. As to conditions: human.
Series [15] in a line: Human hepatic microsomal stability test. Format: in vitro ADME. Particulars: human hepatic microsomes.
Series [16] has as its system Staphylococcus aureus, methicillin resistant. Description: In vitro antibacterial activity test, Agar Dilution MIC. Particulars: 18 h.
Setting [17] is: automated patch-clamp, NPC-16 Patchliner.

Sequence of hERG (Q12809 whole entry): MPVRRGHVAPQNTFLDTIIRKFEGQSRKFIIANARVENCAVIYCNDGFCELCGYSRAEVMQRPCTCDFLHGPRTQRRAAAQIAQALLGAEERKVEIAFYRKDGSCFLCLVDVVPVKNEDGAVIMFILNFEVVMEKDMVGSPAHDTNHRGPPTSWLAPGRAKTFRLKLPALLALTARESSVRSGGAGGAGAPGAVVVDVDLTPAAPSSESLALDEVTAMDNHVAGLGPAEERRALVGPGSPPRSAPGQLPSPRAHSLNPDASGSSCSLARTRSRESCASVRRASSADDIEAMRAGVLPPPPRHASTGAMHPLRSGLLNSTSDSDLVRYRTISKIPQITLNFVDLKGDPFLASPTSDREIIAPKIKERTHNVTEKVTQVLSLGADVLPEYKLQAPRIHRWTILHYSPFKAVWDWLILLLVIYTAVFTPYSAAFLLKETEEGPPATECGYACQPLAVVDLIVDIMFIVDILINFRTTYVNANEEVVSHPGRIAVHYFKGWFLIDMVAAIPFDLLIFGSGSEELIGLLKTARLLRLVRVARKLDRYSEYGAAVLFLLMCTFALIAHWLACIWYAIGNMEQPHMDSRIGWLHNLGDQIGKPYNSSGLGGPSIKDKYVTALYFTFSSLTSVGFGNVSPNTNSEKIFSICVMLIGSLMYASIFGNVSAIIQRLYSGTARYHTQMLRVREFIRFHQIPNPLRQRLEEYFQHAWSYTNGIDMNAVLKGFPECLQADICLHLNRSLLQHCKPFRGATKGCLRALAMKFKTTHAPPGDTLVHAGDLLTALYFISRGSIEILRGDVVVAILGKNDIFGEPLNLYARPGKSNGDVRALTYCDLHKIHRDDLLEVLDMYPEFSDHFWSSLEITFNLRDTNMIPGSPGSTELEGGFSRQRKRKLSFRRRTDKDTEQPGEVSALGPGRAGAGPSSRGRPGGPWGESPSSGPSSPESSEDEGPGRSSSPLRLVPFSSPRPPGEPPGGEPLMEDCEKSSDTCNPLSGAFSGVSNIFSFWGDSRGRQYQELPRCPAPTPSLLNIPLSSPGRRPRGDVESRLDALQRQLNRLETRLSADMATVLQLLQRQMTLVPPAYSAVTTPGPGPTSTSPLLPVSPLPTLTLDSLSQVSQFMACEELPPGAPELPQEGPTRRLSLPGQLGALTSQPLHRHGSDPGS
Sequence of CYP3A4 (P08684 whole entry): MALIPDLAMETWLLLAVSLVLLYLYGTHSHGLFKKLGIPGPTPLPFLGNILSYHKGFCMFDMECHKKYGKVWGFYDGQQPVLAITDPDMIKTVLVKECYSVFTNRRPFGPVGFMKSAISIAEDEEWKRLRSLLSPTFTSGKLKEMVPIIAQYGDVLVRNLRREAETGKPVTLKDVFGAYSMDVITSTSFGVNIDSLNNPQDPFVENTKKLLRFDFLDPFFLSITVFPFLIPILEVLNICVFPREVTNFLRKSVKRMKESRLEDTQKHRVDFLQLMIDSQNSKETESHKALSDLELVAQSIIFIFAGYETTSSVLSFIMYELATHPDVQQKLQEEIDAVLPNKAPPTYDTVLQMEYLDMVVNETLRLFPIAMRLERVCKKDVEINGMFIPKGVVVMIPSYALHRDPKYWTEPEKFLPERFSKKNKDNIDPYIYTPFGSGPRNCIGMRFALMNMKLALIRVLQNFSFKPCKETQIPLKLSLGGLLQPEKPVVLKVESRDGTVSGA

With `CC(=O)N1CCN(c2ccc(OCC3COC(Cn4ccnc4)(c4ccc(Cl)cc4Cl)O3)cc2)CC1` (stereo not drawn) [ketoconazole, reference compound], the activity at CYP3A4 came out at 2.3%.
In the case of `O=C1CC2CN(c3ccc(N4C[C@H](Cn5ccnn5)OC4=O)cc3F)CC2C1` (stereo partly drawn) [Example 4, (5R)-3-[3-fluoro-4-(5-oxo-hexahydro-cyclopenta[c]pyrrol-2-yl)phenyl]-5-(1,2,3-triazol-1-ylmethyl)oxazolidin-2-one], the MIC worked out at 0.3 µg/mL (≈ 0.778 µM) in [1]; 3.1 µg/mL (≈ 8.04 µM) in series [2]; 3.1 µg/mL (≈ 8.04 µM) in series [3]; 3.1 µg/mL (≈ 8.04 µM) in [4]; 1.5 µg/mL (≈ 3.89 µM) in series [6]; 1.5 µg/mL (≈ 3.89 µM) in series [7]. The MIC with Staphylococcus pyogenes worked out at 0.3 µg/mL (≈ 0.778 µM); in series [8] it was 3.1 µg/mL (≈ 8.04 µM); in series [10] it was 0.7 µg/mL (≈ 1.82 µM); in series [11], 1.5 µg/mL (≈ 3.89 µM); in series [12] it was 1.5 µg/mL (≈ 3.89 µM); in [13], 0.7 µg/mL (≈ 1.82 µM). Further, the MIC in [16] was determined as 3.1 µg/mL (≈ 8.04 µM). Also, the activity is 94.9% on CYP1A2; 108% at CYP2D6; 106% at CYP3A4; 73.7% on CYP2C9; 73.6 to 106% in series [14]. The “antibacterial activity against the strain panel” value in series [5] is “high antibacterial activities”. Besides, the IC50 against hERG (setting [17]) was 80.5 µM. Further, the “hERG Max,” value on hERG (setting [17]) was found to be 38%. For the same molecule, on hERG (in vitro hERG assay, cardiac toxicity), the “hERG bonding” value is listed as “does not have hERG bonding”. The “antituberculous activity compared to linezolid” value in series [9] is “more excellent antibacterial activities than linezolid”. In addition, the “Human Hepatic Microsomal stability Remaining activity after 30 minutes (%)” value in series [15] is on record as 83.8%.
With `Nc1ccc(S(=O)(=O)Nc2ccnn2-c2ccccc2)cc1` [sulfaphenazol, reference compound], the activity at CYP2C9 is -3.5%.
In the case of `C=C[C@H]1C[N@@]2CC[C@H]1C[C@@H]2[C@@H](O)c1ccnc2ccc(OC)cc12` [quinidine, reference compound], at CYP2D6, the activity was 11.1%.
Turning to `N#CC=C1CC2CN(c3ccc(N4C[C@H](Cn5ccnn5)OC4=O)cc3F)CC2C1` (stereo partly drawn) [Example 7, (5R)-3-[4-(5-cyanomethylene-hexahydro-cyclopenta[c]pyrrol-2-yl)-3-fluorophenyl]-5-(1,2,3-triazol-1-ylmethyl)oxazolidin-2-one], the MIC in series [1] was found to be 0.3 µg/mL (≈ 0.735 µM); in series [2], 1.5 µg/mL (≈ 3.67 µM); in series [3], 1.5 µg/mL (≈ 3.67 µM); in series [4], 1.5 µg/mL (≈ 3.67 µM); in series [6], 1.5 µg/mL (≈ 3.67 µM); in series [7], 0.3 µg/mL (≈ 0.735 µM). The MIC in the series on Staphylococcus pyogenes came out at 0.3 µg/mL (≈ 0.735 µM); in series [8] it was 1.5 µg/mL (≈ 3.67 µM); in series [10], 0.7 µg/mL (≈ 1.71 µM); in series [11] it was 3.1 µg/mL (≈ 7.59 µM); in series [12], 1.5 µg/mL (≈ 3.67 µM); in series [13], 0.7 µg/mL (≈ 1.71 µM). Besides, the MIC in series [16] amounted to 0.7 µg/mL (≈ 1.71 µM). Further, in series [5], the “antibacterial activity against the strain panel” value is given as “high antibacterial activities”. The “antituberculous activity compared to linezolid” value in series [9] is reported as “antibacterial effects equivalent to linezolid”.
